From patent publication US20230250436A1, “NUCLEIC ACID THAT INTERACTS WITH A RECEPTOR FOR ENDOCRINE DISRUPTING CHEMICALS AND USE THEREOF” (KUMIAI CHEMICAL INDUSTRY CO., LTD., priority 2020, published 2023)

Columns and labels:
Assay type in all cases: cell-based
[1] = test system: juvenile hormone receptor of Daphnia magna (DampaMET); assay: Yeast reporter (β-galactosidase) assay, transformants with DampaMET and DampaSRC; parameters: key to Increase in induction: increase of induction; positive value = reporter activity to substance
Method: (§1) Subsequently, a reporter plasmid prepared by inserting the nucleotide sequence shown in SEQ ID NO: 2 into a yeast comprising the DampaMET plasmid and the DampaSRC plasmid introduced thereinto by the lithium acetate method. Thus, Yeast 1 of Invention was obtained. In the same manner, Yeasts 2 to 38 of Invention each comprising the response element according to the present invention and Control yeasts 1 to 9 shown in Table 3 were prepared.
(§2) With the use of the Yeast 1 of Invention, reporter activity to methyl farnesoate as a juvenile hormone substance was measured. At the outset, the Yeast 1 of Invention was subjected to pre-culture at 30° C. for 18 hours using the pre-culture medium shown in Table 1 until the turbidity (O.D. 595) of the pre-culture medium reached approximately 0.1. The solution of the pre-cultured cells (10 μl) and 1 μl of the solution of methyl farnesoate diluted to various concentrations with dimethyl sulfoxide (DMSO) were mixed with 90 μl of the main culture solution shown in Table 4 in a 96-well plate, and the mixture was subjected to static culture at 30° C. for 18 hours to prepare a reaction solution. The resultant was designated as a test group.
(§3) A reaction solution prepared with the addition of 1 μl of DMSO instead of a diluted methyl farnesoate solution was designated as a control group. Fractions of 10 μl each were collected from the reaction solutions and dispensed into each well of another 96-well plate. Thereafter, 100 μl of an assay reagent comprising a lytic solution (Z buffer: 60 mM Na2HPO4, 40 mM NaH2PO4, 1 mM MgCl2, 10 mM KCl, 2 mM dithiothreitol, 0.20% N-lauroylsarcosine sodium salt) mixed with 1 mg/ml ONPG (orthonitrophenylgalactopyranoside) was dispensed into each well, and the reaction was allowed to proceed at 37° C. for 30 minutes. Thereafter, the absorbance (O.D. 405) and the turbidity (O.D. 595) of the reaction solutions were assayed at the wavelength of 405 nm using a microplate reader (tradename: iMark microplate reader, Bio-Rad Laboratories). The increase of induction was calculated in accordance with the following formula.
(§4) The increase of induction is described in Ito-Harashima S et al., FEBS Open Bio., 7 (7): pp. 995-1008, 2017. When the increase of induction is positive, the transformant is determined to have reporter activity to the substance tested. The test was performed once or repeated 3 times, 5 times, or 15 times, and the average increase of induction was calculated. The control yeast 1 was treated in the same manner and reporter activity was compared.
In the same manner as in Test Example 1, the Yeasts 2, 3, 4, 5, 6, 7, 9, 10, 11, 12, 13, 14, 15, 16, 17, 18, 19, and 20 of Invention were subjected to assays of reporter activity to methyl farnesoate. The test was performed in accordance with Test Example 1, and reporter activity of the yeasts indicated above was compared with that of the control yeasts 2, 3, and 4.
With the use of the control yeast 7 comprising a different nucleotide sequence of the C-box (CACGCG) in the response element, the control yeast 8 comprising a different nucleotide sequence of the E-box (CACGTG), and the control yeast 9 comprising different nucleotide sequences of the C-box and the E-box from the relevant nucleotide sequences of the Yeast 4 of Invention, the influence of a core sequence on reporter activity to methyl farnesoate was evaluated. The test was performed in accordance with Test Example 1.
(§5) With the use of the Yeast 4 and the Yeast 8 of the present Invention, reporter activity to sex hormones; i.e., 17β-estradiol and testosterone, insect juvenile hormones; i.e., juvenile hormone III, and chemical substances suspected of having endocrine disrupting actions, such as 4-nonyl phenol, bisphenol A, 1,1,1-trichloro-2,2-bis(4-chlorophenyl)ethane (DDT), 2,2-bis(4-chlorophenyl)-1,1-dichloroethylene (DDE), and dieldrin, was assayed. The test was performed in accordance with Test Example 1. All the test substances were treated at 10 μM. […]

[2] = test system: juvenile hormone receptor of Drosophila melanogaster (DmMET); assay: Yeast reporter (β-galactosidase) assay, transformants with DmMET and DmTai; conditions: test substance 10 μM
Method: A plasmid expressing a juvenile hormone receptor of Drosophila melanogaster (hereafter, referred to as a “DmMET plasmid”) was prepared in the same manner. At the outset, ORF of cDNA of the DmMET gene was amplified by PCR using, as a template, cDNA of Drosophila melanogaster larvae (Clontech) and the primers for DmMET: DmMET Fwd (SEQ ID NO: 21) and DmMET Rev (SEQ ID NO: 22). PCR was carried out by repeating a cycle of 98° C. for 10 seconds, 55° C. for 30 seconds, and 68° C. for 1.5 minutes 25 times.
as §1, §2, §3, §4
With the use of the Yeast 4 and the Yeast 8 of the present Invention, reporter activity to sex hormones; i.e., 17β-estradiol and testosterone, insect juvenile hormones; i.e., juvenile hormone III, and chemical substances suspected of having endocrine disrupting actions, such as 4-nonyl phenol, bisphenol A, 1,1,1-trichloro-2,2-bis(4-chlorophenyl)ethane (DDT), 2,2-bis(4-chlorophenyl)-1,1-dichloroethylene (DDE), and dieldrin, was assayed. The test was performed in accordance with Test Example 1. All the test substances were treated at 10 μM. For comparison, reporter activity to compounds was assayed using the control yeast 5 and the control yeast 6 comprising a known juvenile hormone receptor response element (i.e., the JH response element of Drosophila melanogaster) integrated therein.

[3] = test system: juvenile hormone receptor of Daphnia magna (DampaMET); assay: Yeast reporter (β-galactosidase) assay, Control yeast 5 with DampaMET, DmTai and DmJHRR; conditions: Control yeast 5 (DmJHRR x3, DampaMET, DmTai), test substance 10 μM
Method: For further comparison, a plasmid comprising a region including the juvenile hormone response element of the Kr-hi gene of Drosophila melanogaster (DmJHRR) inserted thereinto was prepared. DmJHRR is described in He Q et al., J. Biol. Chem., 289 (40), pp. 27874-27885, 2014. A plasmid comprising 3 consecutive repeats of the DmJHRR sequence inserted thereinto was prepared in accordance with the method described above, except that oligo DNA comprising the DmJHRR sequence (SEQ ID NO: 15) was used instead of the oligo DNA shown in SEQ ID NO: 3 and oligo DNA partially complementary to SEQ ID NO: 15 (SEQ ID NO: 16) was used instead of the oligo DNA shown in SEQ ID NO: 4.
as §1, §2, §3, §4, §5

[4] = test system: juvenile hormone receptor of Daphnia magna (DampaMET); assay: Yeast reporter assay for antagonist activity in the presence of 10 nM methyl farnesoate; conditions: Yeast 4 of Invention; test substance 10 μM in the presence of 10 nM methyl farnesoate; 0 = group treated with 10 nM methyl farnesoate
Method: as §2
A reaction solution prepared with the addition of 1 μl of DMSO instead of a diluted methyl farnesoate solution was designated as a control group. Fractions of 10 μl each were collected from the reaction solutions and dispensed into each well of another 96-well plate. […] Thereafter, the absorbance (O.D. 405) and the turbidity (O.D. 595) of the reaction solutions were assayed at the wavelength of 405 nm using a microplate reader (tradename: iMark microplate reader, Bio-Rad Laboratories). The increase of induction was calculated in accordance with the following formula.
as §4, with “The control yeast 1 was treated in the same manner and reporter activity was compared.” left out
With the use of the yeast 4 of the present invention, antagonist activity of juvenile hormone receptors to endrin, aldrin, and dieldrin was evaluated at 10 μM. […]

[5] = Yeast 4 of Invention (SEQ ID NO: 2 x4, DampaMET, DampaSRC), test substance 10 μM
[6] = Control yeast 6 (DmJHRR x3, DmMET, DmTai)
[7] = Yeast 8 of Invention (SEQ ID NO: 2 x4, DmMET, DmTai)
[8] = Yeast 4 of Invention (SEQ ID NO: 2 x4), test substance 100 μM

Compound	Increase in induction [1, 5]	Increase in induction [2, 6]	Increase in induction [2, 7]	Increase in induction [3]	Increase in induction [1, 8]	further results
ClC(Cl)=C(c1ccc(Cl)cc1)c1ccc(Cl)cc1 [DDE, 2,2-bis(4-chlorophenyl)-1,1-dichloroethylene]	2.15	−0.19	1.23	−0.08	–	–
Clc1ccc(C(c2ccc(Cl)cc2)C(Cl)(Cl)Cl)cc1 [DDT, 1,1,1-trichloro-2,2-bis(4-chlorophenyl)ethane]	0.65	−0.24	0.37	−0.07	–	–
C[C@]12CC[C@@H]3c4ccc(O)cc4CC[C@H]3[C@@H]1CC[C@@H]2O [17β-estradiol]	1.97	−0.29	1.01	−0.14	–	–
Cn1nc(C(F)(F)F)c(CS(=O)(=O)C2=NOC(C)(C)C2)c1OC(F)F [Pyroxasulfone, pyroxasulfone]	–	–	–	–	−0.50	–
ClC1=C(Cl)[C@]2(Cl)[C@@H]3[C@@H]4C[C@@H]([C@H]5O[C@@H]45)[C@@H]3[C@@]1(Cl)C2(Cl)Cl [Dieldrin, dieldrin]	3.85	−0.02	0.89	0.00	–	Increase in induction (antagonist activity) [4]: −12.46
ClC1=C(Cl)C2(Cl)C3C4C=CC(C4)C3C1(Cl)C2(Cl)Cl (stereo not shown) [Aldrin, aldrin]	–	–	–	–	–	Increase in induction (antagonist activity) [4]: −9.02
ClC1=C(Cl)C2(Cl)C3C4CC(C5OC45)C3C1(Cl)C2(Cl)Cl (stereo not shown) [Endrin, endrin]	–	–	–	–	–	Increase in induction (antagonist activity) [4]: −0.03
COC(=O)/C=C(\C)CC/C=C(\C)CC[C@H]1OC1(C)C [Juvenile hormone III, juvenile hormone III]	6.20	0.58	1.45	0.41	–	Increase in induction ([2]; Control yeast 6 (DmJHRR x3, DmMET, DmTai), listed as juvenile hormone III): induced; Increase in induction ([3]; listed as juvenile hormone III): induced
CC(C)(c1ccc(O)cc1)c1ccc(O)cc1 [Bisphenol A, bisphenol A]	1.14	−0.23	0.52	−0.38	–	–
COc1ccc(-n2c(=O)c(C(=O)C3C(=O)CCCC3=O)nc3c(Cl)cccc32)cc1 [Fenquinotrione, fenquinotrione]	–	–	–	–	−0.24	–
COC(=O)NCc1cc(/C(C)=N/OCc2cccc(C)n2)ccc1Cl [Pyribencarb, pyribencarb]	–	–	–	–	−0.24	–
C[C@]12CC[C@H]3[C@@H](CCC4=CC(=O)CC[C@@]43C)[C@@H]1CC[C@@H]2O [Testosterone, testosterone]	1.78	−0.22	0.98	−0.02	–	–
CC(C)OC(=O)N[C@H](C(=O)N[C@H](C)c1nc2ccc(F)cc2s1)C(C)C [Benthiavalicarb isopropyl, benthiavalicarb isopropyl]	–	–	–	–	−0.37	–
CC#Cc1cc(C)nc(Nc2ccccc2)n1 [Mepanipyrim, mepanipyrim]	–	–	–	–	−0.76	–
CCCCCCCCCc1ccc(O)cc1 [4-nonyl phenol]	2.16	–	1.81	–	–	–
